Experimental data taken from patent US6664269B2, “Isoquinolinone derivatives” (Maybridge plc, priority 2001, dated 2003).

Experiments:
HeLa cells = assay: Dose Enhancing Factor: potentiation of bleomycin cell growth inhibition (SRB assay); type: cell-based; conditions: test compound 25 μM, bleomycin 0.5 μg/ml
Experimental: The Dose Enhancing Factor (DEF) is a ratio of the enhancement of cell growth inhibition elicited by the test compound in the presence of bleomycin compared to bleomycin alone. The test compounds were used at a fixed concentration of 25 μM. Bleomycin was used at a concentration of 0.5 μg/ml. The DEF was calculated from the formula: [formula]
GrowthTC is cell growth in presence of the test compound;
GrowthControl is cell growth of control cells;
Growthbleo is cell growth in presence of bleomycin; and
Growth(bleo+TC) is cell growth in presence of bleomycin and the test compound.
Cell growth was assessed using the sulforhodamine B (SRB) assay (Skehan, P., et al., 1990, J. Natl. Cancer Inst., 82, 1107-1112). 2,000 HeLa cells were seeded into each well of a flat-bottomed 96-well microtiter plate in a volume of 100 μl and incubated for 6 hours at 37° C. Cells were either replaced with media alone or with media containing the test compound at a final concentration of 25 μM. Cells were allowed to grow for a further 1 hour before the addition of bleomycin to either untreated cells or test compound treated cells. Cells untreated with either bleomycin or test compound were used as a control. Cells treated with test compound alone were used to assess the growth inhibition by the test compound.
Cells were left for a further 16 hours before replacing the media and allowing the cells to grow for a further 72 hours at 37° C. The media was then removed and the cells fixed with 100 μl of ice cold 10% (w/v) trichloroacetic acid. The plates were incubated at 4° C. for 20 minutes and then washed four times with water. Each well of cells was then stained with 100 μl of 0.4% (w/v) SRB in 1% acetic acid for 20 minutes before washing four times with 1% acetic acid. Plates were then dried for 2 hours at room temperature. The dye from the stained cells was solubilized by the addition of 100 μl of 10 mM Tris Base into each well. Plates were gently shaken and left at room temperature for 30 minutes before measuring the optical density at 564 nm on a Microquant microtiter plate reader.

| SMILES | melting point | DEF (Dose Enhancing Factor) (HeLa cells) |
| --- | --- | --- |
| COc1ccc(Cc2cc3ccccc3c(=O)[nH]2)cc1 [Compound 1, 3-(4-methoxybenzyl)-1-isoquinolinone] | 216 to 218 °C | 1.15 |
| O=c1[nH]c(CCc2ccccc2)cc2ccccc12 [Compound 2, 3-(2-Phenylethyl)-1-isoquinolinone] | 198 to 200 °C | 1.4 |
| CCC(c1ccccc1)c1cc2ccccc2c(=O)[nH]1 (stereo not drawn) [Compound 3, 3-(1-Phenylpropyl)-1-isoquinolinone] | 179 to 180 °C | – |
| COc1cccc(Cc2cc3ccccc3c(=O)[nH]2)c1 [Compound 4, 3-(3-Methoxybenzyl)-1-isoquinolinone] | 208 to 210 °C | 1.2 |
| O=c1[nH]c(Cc2ccccc2)cc2ccccc12 [Compound 5, 3-Benzyl-1-isoquinolinone] | 193 to 195 °C | 1.1 |
| O=c1[nH]c(Cc2ccc(F)cc2)cc2ccccc12 [Compound 6, 3-(4-Fluorobenzyl)-1-isoquinolinone] | 238 to 240 °C | – |

The next lines start with results.

| melting point | SMILES | DEF (Dose Enhancing Factor) (HeLa cells) |
| --- | --- | --- |
| 225 to 227 °C | O=c1[nH]c(Cc2cccc(O)c2)cc2ccccc12 [Compound 7, 3-(3-hydroxybenzyl)isoquinolinone] | 1.2 |
| 217 to 220 °C | O=c1[nH]cc(Cc2ccccc2)c2ccccc12 [Compound 8, 4-benzyl-1-isoquinolinone] | – |
| 185 to 188 °C | O=c1[nH]cc(Cc2ccc(F)cc2)c2ccccc12 [Compound 9, 4-(4-Fluorobenzyl)-1-isoquinolinone] | – |
| 148 to 150 °C | O=c1[nH]cc(Cc2ccc(F)c(F)c2)c2ccccc12 [Compound 10, 4-(3,4-Difluorobenzyl)-1-isoquinolinone] | – |
| 132 to 134 °C | O=c1[nH]cc(Cc2cccc(F)c2)c2ccccc12 [Compound 11, 4-(3-Fluorobenzyl)-1-isoquinolinone] | – |
| 85 to 88 °C | N#Cc1cccc(Cc2c[nH]c(=O)c3ccccc23)c1 [Compound 12, 4-(3-Cyanobenzyl)-1-isoquinolinone] | – |
| 180 to 182 °C | O=c1[nH]cc(Cc2ccc(Br)cc2)c2ccccc12 [Compound 13, 4-(4-Bromobenzyl)-1-isoquinolinone] | – |
